Experimental data taken from patent publication US20250326744A1, “PIPERAZINE DERIVATIVE OR SALT THEREOF, AND PHARMACEUTICAL COMPOSITION” (priority 2022, published 2025).
Counter-ions that a name gives are not always drawn.

What was measured:
S-3769 strain = experiment: Combinational effect with antibacterial agent against Pseudomonas aeruginosa (Test Examples 2 and 4): S-3769 strain with AMK or GM at 1/4 MIC, EC99; format: cell-based; conditions: for EC99, S-3769 strain, AMK / EC99, S-3769 strain, GM: Table 52, Test Example 2, 16 to 20 hours culture, OD595; for EC99, S-3769 strain, AMK / EC99, combinational effect with AMK, S-3769 strain: combined with AMK at 1/4 MIC; for EC99, S-3769 strain, GM / EC99, combinational effect with GM, S-3769 strain: combined with GM at 1/4 MIC; for EC99, combinational effect with AMK, S-3769 strain / EC99, combinational effect with GM, S-3769 strain: Test Example 4
Outline: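 P. aeruginosa S-3769 (clinical isolate, MexY overexpressed) grown 16–20 h in CAMHB, 10^4 to 5 CFU/well, with AMK or GM at ¼ MIC plus test compound 0–800 μM. Growth read as OD595; EC99 is the lowest compound concentration giving ≥99% growth inhibition.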

mexB (PA) strain = experiment: Combinational effect with antibacterial agent against Pseudomonas aeruginosa (Test Examples 2 and 4): mexB (PA) strain with LVFX, TC or AZT at 1/4 MIC, EC99; format: cell-based; conditions: for EC99, mexB (PA), AZT / EC99, mexB (PA), LVFX / EC99, mexB (PA), TC: Table 52, Test Example 2, 16 to 20 hours culture, OD595; for EC99, mexB (PA), AZT / EC99, combinational effect with AZT, mexB (PA): combined with AZT at 1/4 MIC; for EC99, mexB (PA), LVFX / EC99, combinational effect with LVFX, mexB (PA): combined with LVFX at 1/4 MIC; for EC99, mexB (PA), TC / EC99, combinational effect with TC, mexB (PA): combined with TC at 1/4 MIC; for EC99, combinational effect with AZT, mexB (PA) / EC99, combinational effect with LVFX, mexB (PA) / EC99, combinational effect with TC, mexB (PA): mexB (PA) strain, Test Example 4
Outline: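 P. aeruginosa mexB (PA) strain, lacking MexCD-OprJ, MexEF-OprN and MexXY and overexpressing MexAB-OprM, grown 16–20 h in CAMHB (10^4–5 CFU/well) with LVFX, TC or AZT at ¼ MIC plus test compound at 0–800 μM. Growth read as OD595; EC99 is the lowest compound concentration giving ≥99% growth inhibition.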

| Compound | EC99, S-3769 strain, AMK (S-3769 strain) | EC99, S-3769 strain, GM (S-3769 strain) | EC99, mexB (PA), AZT (mexB (PA) strain) | EC99, mexB (PA), LVFX (mexB (PA) strain) | EC99, mexB (PA), TC (mexB (PA) strain) | EC99, combinational effect with AMK, S-3769 strain (S-3769 strain) | EC99, combinational effect with GM, S-3769 strain (S-3769 strain) | EC99, combinational effect with AZT, mexB (PA) (mexB (PA) strain) | EC99, combinational effect with LVFX, mexB (PA) (mexB (PA) strain) | EC99, combinational effect with TC, mexB (PA) (mexB (PA) strain) |
| --- | --- | --- | --- | --- | --- | --- | --- | --- | --- | --- |
| CCOc1cccc(F)c1CN1CCN(C(=O)[C@H](N)C2CCN(CCn3ccc4ccccc43)CC2)CC1 [Example 159, Hydrobromide of (R)-2-(1-(2-(1H-indol-1-yl)ethyl)piperidin-4-yl)-2-amino-1-(4-(2-ethoxy-6-fluorobenzyl)piperazin-1-yl)ethan-1-one] | B (25 μM<EC99≤100 μM) | C (100 μM<EC99) | C (100 μM<EC99) | C (100 μM<EC99) | C (100 μM<EC99) |  |  |  |  |  |
| CCSc1cccc(O)c1CN1CCN(C(=O)[C@H](N)C2CCN(CCc3cc(Cl)ccc3-c3ccccc3)CC2)CC1 [Example 591, Hydrochloride of (R)-2-amino-2-(1-(2-(4-chloro-[1,1-biphenyl]-2-yl)ethyl)piperidin-4-yl)-1-(4-(2-(ethylthio)-6-hydroxybenzyl)piperazin-1-yl)ethan-1-one] |  |  |  |  |  | B (25 μM<EC99≤100 μM) | B (25 μM<EC99≤100 μM) | S (EC99≤12.5 μM) | S (EC99≤12.5 μM) | S (EC99≤12.5 μM) |
| CCOc1cccc(F)c1CN1CCN(C(=O)[C@H](N)C2CCN(CCc3cc(Cl)ccc3-c3cccs3)CC2)CC1 [Example 72, Hydrobromide of (R)-2-amino-2-(1-(5-chloro-2-(thiophen-2-yl)phenethyl)piperidin-4-yl)-1-(4-(2-ethoxy-6-fluorobenzyl)piperazin-1-yl)ethan-1-one] | S (EC99≤12.5 μM) | S (EC99≤12.5 μM) | B (25 μM<EC99≤100 μM) | C (100 μM<EC99) | B (25 μM<EC99≤100 μM) |  |  |  |  |  |
| CCOc1cccc(F)c1CN1CCN(C(=O)CN2CCC(CN)(CCc3ccccc3)CC2)CC1 [Example 425, hydrobromide of 2-(4-(aminomethyl)-4-phenethylpiperidin-1-yl)-1-(4-(2-ethoxy-6-fluorobenzyl)piperazin-1-yl)ethan-1-one] | B (25 μM<EC99≤100 μM) | B (25 μM<EC99≤100 μM) | C (100 μM<EC99) | C (100 μM<EC99) | C (100 μM<EC99) |  |  |  |  |  |
| CCOc1ncccc1CN1CCN(C(=O)[C@H](N)C2CCN(CCc3cc(Cl)ccc3-c3ccccc3)CC2)CC1 [Example 511, Hydrobromide of (R)-2-amino-2-(1-(2-(4-chloro-[1,1-biphenyl]-2-yl)ethyl)piperidin-4-yl)-1-(4-((2-ethoxypyridin-3-yl)methyl)piperazin-1-yl)ethan-1-one] |  |  |  |  |  | B (25 μM<EC99≤100 μM) | A (12.5 μM<EC99≤25 μM) | B (25 μM<EC99≤100 μM) | C (100 μM<EC99) | B (25 μM<EC99≤100 μM) |
| CCOc1cccc(F)c1CN1CCN(C(=O)[C@H](N)C2CCN(CCc3cc(Cl)ccc3-c3cccc(O)c3Cl)CC2)CC1 [Example 571, (R)-2-amino-2-(1-(2-(2′,4-dichloro-3′-hydroxy-[1,1′-biphenyl]-2-yl)ethyl)piperidin-4-yl)-1-(4-(2-ethoxy-6-fluorobenzyl)piperazin-1-yl)ethan-1-one] |  |  |  |  |  | S (EC99≤12.5 μM) | S (EC99≤12.5 μM) | S (EC99≤12.5 μM) | S (EC99≤12.5 μM) | S (EC99≤12.5 μM) |
| CCOc1cccc(F)c1CN1CCN(C(=O)[C@H](N)C2CCN(CCc3cc(Cl)ccc3-c3cc(Cl)ccc3O)CC2)CC1 [Example 580, Hydrochloride of (R)-2-amino-2-(1-(2-(4,5′-dichloro-2′-hydroxy-[1,1-biphenyl]-2-yl)ethyl)piperidin-4-yl)-1-(4-(2-ethoxy-6-fluorobenzyl)piperazin-1-yl)ethan-1-one] |  |  |  |  |  | S (EC99≤12.5 μM) | A (12.5 μM<EC99≤25 μM) | A (12.5 μM<EC99≤25 μM) | S (EC99≤12.5 μM) | A (12.5 μM<EC99≤25 μM) |
| CCOc1cccc(F)c1CN1CCN(C(=O)[C@H](N)C2CCN(CCc3cc(Cl)ccc3-c3cccc(C)c3)CC2)CC1 [Example 68, Hydrobromide of (R)-2-amino-2-(1-(2-(4-chloro-3′-methyl-[1,1′-biphenyl]-2-yl)ethyl)piperidin-4-yl)-1-(4-(2-ethoxy-6-fluorobenzyl)piperazin-1-yl)ethan-1-one] | A (12.5 μM<EC99≤25 μM) | A (12.5 μM<EC99≤25 μM) | B (25 μM<EC99≤100 μM) | B (25 μM<EC99≤100 μM) | B (25 μM<EC99≤100 μM) |  |  |  |  |  |
| CCOc1cccc(F)c1CN1CCN(C(=O)[C@H](N)C2CCN(CCc3cccc4ccccc34)CC2)CC1 [Example 42] | S (EC99≤12.5 μM) | S (EC99≤12.5 μM) | B (25 μM<EC99≤100 μM) | B (25 μM<EC99≤100 μM) | B (25 μM<EC99≤100 μM) |  |  |  |  |  |
| N[C@@H](C(=O)N1CCN(Cc2c(F)cccc2N2CCCC2)CC1)C1CCN(CCc2cc(Cl)ccc2-c2ccccc2)CC1 [Example 517, Hydrobromide of (R)-2-amino-2-(1-(2-(4-chloro-[1,1-biphenyl]-2-yl)ethyl)piperidin-4-yl)-1-(4-(2-fluoro-6-(pyrrolidin-1-yl)benzyl)piperazin-1-yl)ethan-1-one] |  |  |  |  |  | B (25 μM<EC99≤100 μM) | B (25 μM<EC99≤100 μM) | B (25 μM<EC99≤100 μM) | C (100 μM<EC99) | B (25 μM<EC99≤100 μM) |
| N[C@@H](C(=O)N1CCN(Cc2ccccc2SC(F)(F)F)CC1)C1CCN(CCc2cc(Cl)ccc2-c2ccccc2)CC1 [Example 529, Hydrobromide of (R)-2-amino-2-(1-(2-(4-chloro-[1,1-biphenyl]-2-yl)ethyl)piperidin-4-yl)-1-(4-(2-((trifluoromethyl)thio)benzyl)piperazin-1-yl)ethan-1-one] |  |  |  |  |  | A (12.5 μM<EC99≤25 μM) | B (25 μM<EC99≤100 μM) | C (100 μM<EC99) | A (12.5 μM<EC99≤25 μM) | A (12.5 μM<EC99≤25 μM) |
| CCOc1cccc(F)c1CN1CCN(C(=O)[C@H](N)C2CCN(CCc3cc(Cl)ccc3-c3cccc(NC)c3)CC2)CC1 [Example 561, Hydrobromide of (R)-2-amino-2-(1-(2-(4-chloro-3′-(methylamino)-[1,1-biphenyl]-2-yl)ethyl)piperidin-4-yl)-1-(4-(2-ethoxy-6-fluorobenzyl)piperazin-1-yl)ethan-1-one] |  |  |  |  |  | S (EC99≤12.5 μM) | S (EC99≤12.5 μM) | S (EC99≤12.5 μM) | S (EC99≤12.5 μM) | A (12.5 μM<EC99≤25 μM) |
| CCSc1cc(F)ccc1CN1CCN(C(=O)[C@H](N)C2CCN(CCc3cc(Cl)ccc3-c3cccc(N)c3)CC2)CC1 [Example 544, hydrobromide of (R)-2-amino-2-(1-(2-(3′-amino-4-chloro-[1,1′-biphenyl]-2-yl)ethyl)piperidin-4-yl)-1-(4-(2-(ethylthio)-4-fluorobenzyl)piperazin-1-yl)ethan-1-one] |  |  |  |  |  | A (12.5 μM<EC99≤25 μM) | S (EC99≤12.5 μM) | S (EC99≤12.5 μM) | S (EC99≤12.5 μM) | S (EC99≤12.5 μM) |
